Structures are written as SMILES.

One experiment has as its target T1, TXA2 synthase (Homo sapiens, UniProt P24557).
T1 construct: using a human platelet microsomal TXA2 synthase preparation; from tissue; host or cells: human platelet microsomes
T1 sequence (P24557 1-533): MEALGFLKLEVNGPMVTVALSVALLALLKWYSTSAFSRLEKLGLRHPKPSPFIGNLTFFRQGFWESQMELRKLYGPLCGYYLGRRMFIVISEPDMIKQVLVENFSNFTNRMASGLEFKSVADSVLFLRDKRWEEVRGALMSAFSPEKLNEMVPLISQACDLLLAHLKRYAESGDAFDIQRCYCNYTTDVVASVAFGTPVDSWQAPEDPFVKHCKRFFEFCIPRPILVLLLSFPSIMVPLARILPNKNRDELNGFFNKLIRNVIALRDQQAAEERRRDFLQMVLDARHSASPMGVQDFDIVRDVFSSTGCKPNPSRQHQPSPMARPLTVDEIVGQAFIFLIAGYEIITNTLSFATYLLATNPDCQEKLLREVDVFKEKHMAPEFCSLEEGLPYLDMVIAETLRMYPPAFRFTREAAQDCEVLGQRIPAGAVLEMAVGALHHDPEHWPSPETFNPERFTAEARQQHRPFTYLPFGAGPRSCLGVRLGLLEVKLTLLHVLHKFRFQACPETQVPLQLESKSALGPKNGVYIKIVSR
Put plainly: test (e): TXA2 synthase inhibition in human platelet microsomal preparation. In kind it is biochemical. Conditions: [1-^14 C]arachidonic acid.

A further experiment deals with T2, prostacyclin synthase (Homo sapiens, UniProt Q16647).
T2 construct: obtaining cultured human endothelial cells from unbilical vein; endogenous in cells; host or cells: cultured human umbilical vein endothelial cells
T2 sequence (Q16647 1-500): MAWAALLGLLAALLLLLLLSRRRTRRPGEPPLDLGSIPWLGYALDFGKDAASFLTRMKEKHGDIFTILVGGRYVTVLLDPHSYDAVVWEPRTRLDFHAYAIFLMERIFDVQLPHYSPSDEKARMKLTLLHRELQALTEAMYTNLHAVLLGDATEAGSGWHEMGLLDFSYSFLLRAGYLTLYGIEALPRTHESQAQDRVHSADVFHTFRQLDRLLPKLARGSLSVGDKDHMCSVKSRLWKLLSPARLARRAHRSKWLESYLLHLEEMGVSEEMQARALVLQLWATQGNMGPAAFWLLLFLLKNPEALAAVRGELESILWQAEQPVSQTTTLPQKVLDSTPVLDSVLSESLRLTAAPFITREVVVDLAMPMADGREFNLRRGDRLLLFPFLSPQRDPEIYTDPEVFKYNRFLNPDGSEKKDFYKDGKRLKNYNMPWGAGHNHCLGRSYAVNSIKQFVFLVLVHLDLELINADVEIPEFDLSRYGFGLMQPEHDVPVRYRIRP
Put plainly: test (g): prostacyclin synthase inhibition in cultured human endothelial cells (6-oxoPGF1a radioimmunoassay). In kind it is cell-based. The procedure: The growth medium is aspirated from the wells and the endothelial cell monolayers are washed twice with alquots of medium (1 ml, Earls 199 medium) containing vehicle or compound. The monolayers are first incubated with medium containing vehicle or compound for 30 minutes at 37° C. Arachidonic acid (10 micro M) is added to the medium and the monolayers are incubated for a further 2 hours with a fresh aliquot of medium. The incubation is terminated by aspiration of the medium into indomethacin (1 micro M). The sample is stored at -20° C. and radioimmunoassay for the stable metabolite 6-oxoPGF1a is performed. By comparison of the amount of 6-oxoPGF1a present in a sample incubated in the presence of compound to one incubated in the absence of compound, the prostacyclin synthase inhibitory properties of the compound may be assessed.

Experiment [1] deals with T3, U46619 stimulated platelet aggregation (Homo sapiens, UniProt P21731).
T3 construct: aggregating human, citrated, platelet-rich plasma; endogenous in cells; host or cells: human platelets in citrated platelet-rich plasma
T3 sequence (P21731 1-343): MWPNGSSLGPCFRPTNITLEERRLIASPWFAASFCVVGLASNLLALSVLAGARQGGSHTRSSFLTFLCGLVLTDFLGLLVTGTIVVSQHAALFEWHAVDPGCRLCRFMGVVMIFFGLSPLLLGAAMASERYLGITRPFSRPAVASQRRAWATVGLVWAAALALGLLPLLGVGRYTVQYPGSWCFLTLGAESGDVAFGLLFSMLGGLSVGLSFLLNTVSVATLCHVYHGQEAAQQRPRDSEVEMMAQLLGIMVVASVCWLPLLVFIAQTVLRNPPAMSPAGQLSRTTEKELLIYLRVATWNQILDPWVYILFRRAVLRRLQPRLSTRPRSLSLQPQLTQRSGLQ
The experiment in a line: test (b): blood platelet aggregation test, TXA2 antagonism against U46619. Conditions: human platelet-rich plasma; agonist U46619; read-out: pA2, test (b) (converted). In kind it is cell-based. The source says:
(b) a blood platelet aggregation test based on that described by Born (Nature, 1962, 194, 927-929) and involving:
(i) aggregating human, citrated, platelet-rich plasma by addition of the TXA2 mimetic agent U46619 so that a dose-response curve is generated;
(ii) generating a dose-response curve for U46619 stimulated platelet aggregation in the presence of increasing amounts of test compound (generally in the range 10^-5 M to 10^-10 M); and
(iii) calculating a pA2 value indicating potency of TXA2 antagonism for the test compound, averaged over several concentrations, from the calculated 50% response value for U46619 aggregation in the presence and absence of test compound; or […]

Broadly, the IC50 is the concentration needed to halve the response being measured. Lower therefore signals greater potency in that assay. For `Cc1ccc(OC(C)(C)[C@H]2OC[C@@H](C/C=C\CCC(=O)O)[C@@H](c3cncs3)O2)c([N+](=O)[O-])c1` [Example 2], the IC50 against TXA2 synthase was determined as 0.016 µM; against prostacyclin synthase (human endothelial cells from umbilical vein, unit inferred) it was 211 µM. For the same compound, the “prostacyclin inhibitory properties, test (g)” value at prostacyclin synthase (IC50 greater than 100 micro M deemed no significant inhibition) is “no significant prostacyclin inhibitory properties”. Besides, the Kb in experiment [1] was 0.00776 µM.

The values are drawn from patent publication US5219874A, “Heterocyclic acids” (Imperial Chemical Industries PLC, priority 1991, dated 1993).
